Experimental data from publication PMC1976805, “Preclinical pharmacokinetics of benznidazole” (British Journal of Cancer, 1984).
Values joined by “and” are separate entries in the source; they are usually repeats but may differ in a detail not shown here. Equal values may be shown once. Read-outs that look alike come from different tables or passages of the source.

Tests used:
[1] = Whole plasma pharmacokinetics in sheep (HPLC); assay type: in vivo; details: for half-life: male, Clun Forest/Border Leicester cross, sheep, plasma, iv
Description: Br. J. Cancer (1984), 50, 291-303 Preclinical pharmacokinetics of benznidazole P. Workman', R.A.S. White2, M.I. Walton', L.N. Owen2* & P.R. Twentyman' 1MRC Clinical Oncology and Radiotherapeutics Unit, MRC Centre, Hills Road, Cambridge CB2 2QH, and 2Department of Clinical Veterinary Medicine, University of Cambridge, Madingley Road, Cambridge CB3 OES, UK. […] We have investigated the detailed pharmacokinetics of benznidazole in mice, dogs and sheep to provide a data base for the estimation of doses required for chemosensitization in man. Pharmacokinetic behaviour was linear except at high doses in mice. Absorption was fairly rapid and bioavailability was complete following both i.p. administration in mice and oral administration in dogs. Elimination t4 values were longer than for MISO, being 90 min in mice, 4-5 h in sheep and 9-11 h in dogs. At doses giving linear kinetics, peak whole plasma concentrations per administered mgkg-1 were 0.75 jigml-1 for the i.p. route in mice and 1.8jugmlP' for the oral route in dogs. Though between 39 and 59% of plasma benznidazole was bound to protein, tissue penetration was generally good. Tissue/whole plasma ratios ranged from 59-99% for transplantable mouse tumours and from 14-70% for spontaneous dog neoplasms. Nervous tissue penetration was similar to that in tumours: brain/whole plasma ratios averaged between 61 and 76% in mice and 42% in dogs, while peripheral nerve/whole plasma ratios in dogs averaged 74%. Mean liver/whole plasma ratios were 42% and 71% in BALB/c and C3H/He mouse strains respectively. Only -5% of the administered dose was excreted unchanged in the urine, indicating the likelihood of extensive metabolism. […] Enhancement of CCNU response is likely to require circulating benznidazole concentrations of 10-30 pgml-1 and we predict that these will be obtained with oral doses of 6-20 mgkg- 1 in man. […] This enhancement, or chemosensitization, is usually greater than that seen in dose-limiting normal tissues, resulting in an improved therapeutic index. Because of the relatively high doses of MISO usually required for chemosensitization in mice (see above refs), and also because of its neurotoxicity in man (Dische et al., 1977), we have been interested in finding an improved chemosensitizer. […] The lipophilic ana- logue benznidazole (N-benzyl-(2-nitroimidazolyl) acetamide, Ro 07-1051; Radanil; Roche), the structure of which is shown in Figure 1, was selected for detailed study because of its ability to *Present address: Animal Health Trust, Small Animals Centre, Lanwades Park, Kennett, Newmarket, Suffolk CB8 7PN, UK. Correspondence: P. Workman. […] These findings have been confirmed independently by Siemann et al. (1983). Although benznidazole is used quite widely in South America to treat patients with the trypanosomal infection Chagas' disease or with mucotaneous Leishmaniasis (Barclay et al., 1978; Cerisola et al., 1978; Coura et al., 1978; Fava et al., 1978), apart from our preliminary studies (White et al., 1982) the only published data on its pharmaco- kinetics are for human plasma concentrations measured by polarography (Raaflub & Ziegler, 1979; Raaflub, 1980). Here we describe the pharmacokinetics of benznidazole in the mouse, sheep and dog, as determined by high-performance liquid chromatography (HPLC). […]

plasma proteins = assay: Plasma protein binding in sheep (plasma ultrafiltrate); assay type: in vivo
Description: Br. J. Cancer (1984), 50, 291-303 Preclinical pharmacokinetics of benznidazole P. Workman', R.A.S. White2, M.I. Walton', L.N. Owen2* & P.R. Twentyman' 1MRC Clinical Oncology and Radiotherapeutics Unit, MRC Centre, Hills Road, Cambridge CB2 2QH, and 2Department of Clinical Veterinary Medicine, University of Cambridge, Madingley Road, Cambridge CB3 OES, UK. […] We have investigated the detailed pharmacokinetics of benznidazole in mice, dogs and sheep to provide a data base for the estimation of doses required for chemosensitization in man. Pharmacokinetic behaviour was linear except at high doses in mice. Absorption was fairly rapid and bioavailability was complete following both i.p. administration in mice and oral administration in dogs. […] Although benznidazole is used quite widely in South America to treat patients with the trypanosomal infection Chagas' disease or with mucotaneous Leishmaniasis (Barclay et al., 1978; Cerisola et al., 1978; Coura et al., 1978; Fava et al., 1978), apart from our preliminary studies (White et al., 1982) the only published data on its pharmaco- kinetics are for human plasma concentrations measured by polarography (Raaflub & Ziegler, 1979; Raaflub, 1980). Here we describe the pharmacokinetics of benznidazole in the mouse, sheep and dog, as determined by high-performance liquid chromatography (HPLC). […]

[2] = Penetration into mouse liver; assay type: in vivo; details: for liver/whole plasma ratio, overall mean / liver concentration / whole plasma concentration / Kp at 0.5 h / Kp at 3 h / Kp at 6 h / Kp: 78 mg kg-1 i.p.; for liver/whole plasma ratio, overall mean / Kp: 0.5-6 h; for Kp at 0.5 h / Kp at 3 h / Kp at 6 h / Kp: mouse, ip; for Kp at 0.5 h / Kp at 3 h / Kp at 6 h: liver / whole plasma, read-out: liver/whole plasma ratio; for Kp: liver, read-out: liver/whole plasma ratio, overall mean
Description: (§1) Br. J. Cancer (1984), 50, 291-303 Preclinical pharmacokinetics of benznidazole P. Workman', R.A.S. White2, M.I. Walton', L.N. Owen2* & P.R. Twentyman' 1MRC Clinical Oncology and Radiotherapeutics Unit, MRC Centre, Hills Road, Cambridge CB2 2QH, and 2Department of Clinical Veterinary Medicine, University of Cambridge, Madingley Road, Cambridge CB3 OES, UK. […] We have investigated the detailed pharmacokinetics of benznidazole in mice, dogs and sheep to provide a data base for the estimation of doses required for chemosensitization in man. Pharmacokinetic behaviour was linear except at high doses in mice. Absorption was fairly rapid and bioavailability was complete following both i.p. administration in mice and oral administration in dogs. Elimination t4 values were longer than for MISO, being 90 min in mice, 4-5 h in sheep and 9-11 h in dogs. At doses giving linear kinetics, peak whole plasma concentrations per administered mgkg-1 were 0.75 jigml-1 for the i.p. route in mice and 1.8jugmlP' for the oral route in dogs. Though between 39 and 59% of plasma benznidazole was bound to protein, tissue penetration was generally good. Tissue/whole plasma ratios ranged from 59-99% for transplantable mouse tumours and from 14-70% for spontaneous dog neoplasms. Nervous tissue penetration was similar to that in tumours: brain/whole plasma ratios averaged between 61 and 76% in mice and 42% in dogs, while peripheral nerve/whole plasma ratios in dogs averaged 74%. Mean liver/whole plasma ratios were 42% and 71% in BALB/c and C3H/He mouse strains respectively. Only -5% of the administered dose was excreted unchanged in the urine, indicating the likelihood of extensive metabolism. […] Enhancement of CCNU response is likely to require circulating benznidazole concentrations of 10-30 pgml-1 and we predict that these will be obtained with oral doses of 6-20 mgkg- 1 in man. […] This enhancement, or chemosensitization, is usually greater than that seen in dose-limiting normal tissues, resulting in an improved therapeutic index. Because of the relatively high doses of MISO usually required for chemosensitization in mice (see above refs), and also because of its neurotoxicity in man (Dische et al., 1977), we have been interested in finding an improved chemosensitizer. […] The lipophilic ana- logue benznidazole (N-benzyl-(2-nitroimidazolyl) acetamide, Ro 07-1051; Radanil; Roche), the structure of which is shown in Figure 1, was selected for detailed study because of its ability to *Present address: Animal Health Trust, Small Animals Centre, Lanwades Park, Kennett, Newmarket, Suffolk CB8 7PN, UK. Correspondence: P. Workman. […] These findings have been confirmed independently by Siemann et al. (1983). Although benznidazole is used quite widely in South America to treat patients with the trypanosomal infection Chagas' disease or with mucotaneous Leishmaniasis (Barclay et al., 1978; Cerisola et al., 1978; Coura et al., 1978; Fava et al., 1978), apart from our preliminary studies (White et al., 1982) the only published data on its pharmaco- kinetics are for human plasma concentrations measured by polarography (Raaflub & Ziegler, 1979; Raaflub, 1980). Here we describe the pharmacokinetics of benznidazole in the mouse, sheep and dog, as determined by high-performance liquid chromatography (HPLC). […] The Macmillan Press Ltd., 1984 292 P. WORKMAN et al. particularly on plasma and tumour concentrations, have been used as a basis for the estimation of the benznidazole doses required in a Phase I trial of benznidazole plus CCNU, at present ongoing in our Unit. Materials and methods Animals and tumours Adult inbred male BALB/c mice were obtained from OLAC (Southern) Ltd. (Bicester, UK) and adult inbred C3H/He mice of both sexes from OLAC and our own breeding colony. Mice were housed in plastic cages on sawdust bedding made from soft white woods, and allowed laboratory chow and water ad lib. They were used at 20-35 g body wt.

[3] = Penetration into brain and peripheral nerve in dogs; assay type: in vivo, dog; details: 25 mg kg-1 oral; for Kp: collie crossbred, dog, po, 25 mg kg-1, two crossbred dogs, 1-4 h
Description: as §1

`O=C(Cn1ccnc1[N+](=O)[O-])NCc1ccccc1` [benznidazole, N-benzyl-(2-nitroimidazolyl) acetamide] showed a half-life ([1]; 4 mg/kg, sheep 1, 4 mg kg-1 i.v., read-out: elimination t1/2 (95% confidence limits) (converted)) of 5.2 h, a half-life ([1]; 4 mg/kg, sheep 2, 4 mg kg-1 i.v., read-out: elimination t1/2 (95% confidence limits) (converted)) of 3.8 h and a half-life ([1]; summary value, read-out: elimination t1/2) of 4 to 5 h. For the same compound, the “peak whole plasma concentration” value ([1]; sheep 1, 4 mg kg-1 i.v.) was 3.6 µg/mL, the “peak whole plasma concentration” value ([1]; sheep 2, 4 mg kg-1 i.v.) was 2.5 µg/mL and the fraction unbound (plasma proteins; male, Clun Forest/Border Leicester cross, plasma, iv, sheep 2, 4 mg kg-1 i.v., read-out: protein binding (s.e., n=6) (converted)) was 0.58. The “binding to plasma proteins” value (plasma proteins; sheep, discussion summary) was 42%, the “liver/whole plasma ratio, overall mean” value ([2]; BALB/c) was 41.7% and the liver concentration ([2]; BALB/c, 0.5 h) was 20.8 µg/g. The whole plasma concentration ([2]; BALB/c, 0.5 h) was 45.3 µg/mL, the liver concentration ([2]; BALB/c, 3.0 h) was 10.3 µg/g and the whole plasma concentration ([2]; BALB/c, 3.0 h) was 29.8 µg/mL. For the same compound, the liver concentration ([2]; BALB/c, 6.0 h) was 8.2 µg/g, the whole plasma concentration ([2]; BALB/c, 6.0 h) was 12.2 µg/mL and the “liver/whole plasma ratio, overall mean” value ([2]; C3H/He, n=29) was 70.6% and 71 + 8%. The liver concentration ([2]; C3H/He, 0.5 h) was 25.2 µg/g, the whole plasma concentration ([2]; C3H/He, 0.5 h) was 33.9 µg/mL and the liver concentration ([2]; C3H/He, 3.0 h) was 17.3 µg/g. It also gave a whole plasma concentration ([2]; C3H/He, 3.0 h) of 34.1 µg/mL, a liver concentration ([2]; C3H/He, 6.0 h) of 17.8 µg/g and a whole plasma concentration ([2]; C3H/He, 6.0 h) of 21.1 µg/mL. The Kp at 0.5 h ([2]; both sexes, C3H/He, 78 mg kg-1, C3H/He, 0.5 h) was 0.758, the Kp at 3 h ([2]; both sexes, C3H/He, 78 mg kg-1, C3H/He, 3.0 h) was 0.533 and the Kp at 6 h ([2]; both sexes, C3H/He, 78 mg kg-1, C3H/He, 6.0 h) was 0.843. The Kp ([2]; both sexes, C3H/He, 78 mg kg-1, C3H/He, n=29) was 0.71, the Kp at 0.5 h ([2]; male, BALB/c, 78 mg kg-1, BALB/c, 0.5 h) was 0.466 and the Kp at 3 h ([2]; male, BALB/c, 78 mg kg-1, BALB/c, 3.0 h) was 0.348. The Kp at 6 h ([2]; male, BALB/c, 78 mg kg-1, BALB/c, 6.0 h) was 0.439, the Kp ([2]; male, BALB/c, 78 mg kg-1, BALB/c) was 0.42 and the “peak liver concentration that would be produced” value ([2]; mice, 13 mg kg-1 i.p.) was ~7 µg/g. It also gave a liver concentration ([2]; mice, discussion summary) of 21 µg/g, a Kp ([3]; brain, read-out: brain/whole plasma ratio, overall mean (s.e., n=8)) of 0.42 and a Kp ([3]; peripheral nerve, read-out: peripheral nerve/whole plasma ratio, mean (s.e., n=7)) of 0.74. It also gave a brain concentration ([3]; dog G, 1 h) of 1.1 µg/g, a peripheral nerve concentration ([3]; dog G, 1 h) of 1.3 µg/g and a plasma concentration ([3]; dog G, 1 h) of 3100 ng/mL.
